Experimental data from EP0075139A1 (priority 1981, dated 1983).

Tested on: Plasmopara viticola
Experiment: Efficacy against Plasmopara viticola on potted vine leaves (protective spray, greenhouse)
Type: in vivo
Details: 0,025 %ige Spritzbrühe; potted vines "Müller-Thurgau"; infected 10 days after spraying; value given as 'beispielsweise' (for example)
Text: Wirksamkeit gegen Plasmopara viticola
Blätter von Topfreben der Sorte "Müller-Thurgau" werden mit wäßriger Spritzbrühe, die 80 % Wirkstoff und 20 % Emulgiermittel in der Trockensubstanz enthält, besprüht. Um die Wirkungsdauer der Wirkstoffe beurteilen zu können, werden die Pflanzen nach dem Antrocknen des Spritzbelages 10 Tage im Gewächshaus aufgestellt. Erst dann werden die Blätter mit einer Zoosporenaufschwemmung von Plasmopara viticola (Rebenperonospora) infiziert. Danach werden die Reben zunächst für 16 Stunden in einer wasserdampfgesättigten Kammer bei 24°C und anschließend für 8 Tage in einem Gewächshaus mit Temperaturen zwischen 20 und 30 C aufgestellt. Nach dieser Zeit werden die Pflanzen zur Beschleunigung des Sporangienträgerausbruchs abermals für 16 Stunden in der feuchten Kammer aufgestellt. Dann erfolgt die Beurteilung des Ausmaßes des Pilzausbruches auf den Blattunterseiten.
Das Ergebnis des Versuches zeigt, daß beispielsweise die Verbindungen Nr. 1, 2, 11 und 12 bei Anwendung als 0,025 %ige Spritzbrühe eine bessere fungizide Wirkung (beispielsweise 100 %) zeigen als der bekannte Wirkstoff A (beispielsweise 90 %).

Compound	fungizide Wirkung [%]
O=C1c2ccccc2C(=O)N1SC(Cl)(Cl)Cl [Verbindung A, N-Trichlormethylthio-phthalimid]	90
CC(=O)C(=O)N(c1c(C)ccc2ccccc12)C1CCOC1=O (stereo not drawn) [Verbindung Nr. 1, N-(2-Methyl-1-naphthyl)-N-(alpha-butyro--gamma-lactonyl)-brenztraubensäure-amid]	100

Tested on: Phytophthora infestans
Experiment: not given
Type: in vivo
Details: 0,025 %ige Spritzbrühe; potted tomato "Große Fleischtomate"; assessed 5 days after infection; value given as 'beispielsweise' (for example)

Compound	fungizide Wirkung [%]
O=C1C2CC=CCC2C(=O)N1SC(Cl)(Cl)Cl (stereo not drawn) [Verbindung B, N-Trichlormethylthio-tetrahydrophthalimid]	70
S=C([S-])NCCNC(=S)[S-].[Zn+2] [Verbindung C, Zink-ethylen-1,2-bis-dithiocarbamat]	70
CC(=O)C(=O)N(c1c(C)ccc2ccccc12)C1CCOC1=O (stereo not drawn) [Verbindung Nr. 1, N-(2-Methyl-1-naphthyl)-N-(alpha-butyro--gamma-lactonyl)-brenztraubensäure-amid]	90
COC(=O)C(C)N(C(=O)C(C)=NOCc1c(Cl)cccc1Cl)c1c(C)cccc1C (stereo not drawn) [Verbindung Nr. 22, N-(2,6-Dimethyl-phenyl)-N-[(1-methoxycarbonyl)-1-ethyl]-2-[O-(2,6-dichlor-benzyl)-oximino]-brenztraubensäure-amid]	90
